Reference: US20240217966A1, “PHARMACEUTICAL COMPOSITION CONTAINING GLP-1 RECEPTOR AGONIST HAVING FUSED RING” (Shionogi & Co., Ltd., priority 2021, published 2024)

Molecular target: T1, Human GLP-1 receptor (Homo sapiens, UniProt P43220)
T1 construct: expressed in transfected cells
Assay: Measurement of GLP-1 receptor agonist activity (cAMP assay)
Type: cell-based
Settings: for Emax: CHO-K1, hGLP-1R/CHO-K1 cells, read-out: Emax(%); for EC50: cAMP increase, 37° C. 1 hour
Procedure: Test Example 1: (Measurement of GLP-1 Receptor Agonist Activity)
Human GLP-1 receptor stably expressing cells (hGLP-1R/CHO-K1 cells) are cultured in an α-MEM medium (Sigma) containing 10% FBS (Hyclone), 2% GlutaMAX (Gibco), 1% G418 (Nacalai Tesque), and 1% Penicillin-Streptomycin Mixed Solution (Sigma) at 37° C. under 5% CO2 conditions, and recovered by treating a 10 fold diluted 5.0 g/l-trypsin/5.3 mmol/l-EDTA solution (Nacalai Tesque) and cryopreserved.
A DMSO solution containing the compound of the present invention or human GLP-1 (7-36) (Phoenix Pharmaceuticals) is dispensed into a 384-well microplate (Greiner) at 62.5 nL/well, and in addition, 400 μM Forskolin (Nacalai Tesque) is dispensed therein at 7.5 nL/well. Subsequently, the frozen GLP-1 R/CHO-K1 cells are thawed in a thermostatic bath at 37° C., suspended in HBSS buffer (GIBCO) containing 0.1% BSA (Sigma), 20 mM HEPES (GIBCO), 0.1 mM IBMX (Sigma), and 0.2 mM RO20-1724 (Calbiochem) at 2×10^4 cells/mL, and the cell suspension is added at 6 μL/well. The solution was incubated at 37° C. for 1 hour and intracellular cAMP concentration is measured using cAMP Gs dynamic kit (Cisbio) according to the protocol attached to the product. Specifically, cAMP-d2 and Anti-cAMP-Cryptate are each added in an amount of 3 μL/well, the mixture is incubated at room temperature for 1 hour, and time-resolved fluorescence is measured using PHERAstar (BMG Labtech).
The dilution concentration or the dilution solvent are changed as necessary.
The compounds of the present invention were tested essentially as described above.

[1] = cAMP, 100% = human GLP-1 (7-36) at 2 nM, 0% = DMSO only

T1 sequence (P43220 24-463): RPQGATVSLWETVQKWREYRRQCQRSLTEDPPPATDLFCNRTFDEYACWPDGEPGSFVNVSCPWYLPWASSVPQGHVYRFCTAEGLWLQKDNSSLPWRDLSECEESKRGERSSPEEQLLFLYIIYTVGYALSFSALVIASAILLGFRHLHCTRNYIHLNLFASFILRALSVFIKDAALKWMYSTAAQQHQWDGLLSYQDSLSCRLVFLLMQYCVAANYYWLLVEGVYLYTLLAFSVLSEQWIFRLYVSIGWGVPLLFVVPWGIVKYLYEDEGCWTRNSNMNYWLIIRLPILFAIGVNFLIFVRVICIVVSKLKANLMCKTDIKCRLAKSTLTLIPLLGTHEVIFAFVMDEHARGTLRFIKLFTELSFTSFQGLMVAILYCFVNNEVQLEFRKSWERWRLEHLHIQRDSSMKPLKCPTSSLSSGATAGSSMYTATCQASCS

Emax [1]	EC50 (hGLP-1R/CHO-K1 cells)	Emax(%) (hGLP-1R/CHO-K1 cells, cAMP, 100% = human GLP-1 (7-36) at 2 nM, 0% = DMSO only)	SMILES
103%	2.43 nM		O=C(O)c1cc(OC(F)F)c2nc(CN3CCc4cc(C(F)(F)F)c(OCc5ccc(Cl)cc5F)cc4C3)n(C[C@@H]3CCO3)c2c1 [Compound I-120]
119%	1.21 nM		C[C@H]1c2cc(OCc3ccc(F)cc3)c(C(F)(F)F)cc2CCN1Cc1nc2c(F)cc(C(=O)O)cc2n1C[C@@H]1CCO1 [Compound I-121]
97%	1.22 nM		C[C@H]1c2cc(OCc3ccc(F)cc3)c(C(F)(F)F)cc2CCN1Cc1nc2ccc(C(=O)O)c(F)c2n1C[C@@H]1CCO1 [Compound I-122]
102%	1.71 nM		C[C@H]1c2cc(OCc3c(F)cc(F)cc3F)c(C(F)(F)F)cc2CCN1Cc1nc2ccc(C(=O)O)cc2n1C[C@@H]1CCO1 [Compound I-124]
99.7%		98.7%	C[C@H]1c2cc(OCc3c(F)cc(F)cc3F)c(C(F)(F)F)cc2CCN1Cc1nc2ccc(C(=O)O)c(F)c2n1C[C@@H]1CCO1 [Compound I-126]
111%	1.15 nM		O=C(O)c1ccc2nc(Cc3cc(F)c4nc(C(F)(F)F)c(OCc5ccc(Cl)cc5F)nc4c3)n(C[C@@H]3CCO3)c2c1 [Compound I-127]
81.3%	40.3 nM		O=C(O)c1ccc2nc(Cc3cc4nc(OCc5ccc(Cl)cc5F)c(C(F)(F)F)nc4cc3F)n(C[C@@H]3CCO3)c2c1 [Compound I-128]
122%	0.329 nM		C[C@H]1c2cc(OCc3c(F)cc(Cl)cc3F)c(C(F)(F)F)cc2CCN1Cc1nc2c(F)cc(C(=O)O)cc2n1C[C@@H]1CCO1 [Compound I-129]
139%	0.307 nM		C[C@H]1c2cc(OCc3c(F)cc(Cl)cc3F)c(C(F)(F)F)cc2CCN1Cc1nc2ccc(C(=O)O)c(F)c2n1C[C@@H]1CCO1 [Compound I-130]
105%	0.881 nM		Cc1c(Cc2nc3ccc(C(=O)O)cc3n2C[C@@H]2CCO2)ccc2nc(C(F)(F)F)c(OCc3ccc(Cl)cc3F)nc12 [Compound I-132]
119%	1.18 nM		O=C(O)c1cc(F)c2nc(CN3CCc4cc(C(F)(F)F)c(OCc5ccc(Cl)cc5F)cc4C3)n(C[C@@H]3CCO3)c2c1F [Compound I-134]
91%	27.6 nM		O=C(O)c1ccc2nc(CN3CCc4cc(C(F)(F)F)c(OCc5ccc(C(F)(F)F)cn5)cc4C3)n(C[C@@H]3CCO3)c2c1 [Compound I-135]
107%	5.73 nM		Cc1ccc(COc2cc3c(cc2C(F)(F)F)CCN(Cc2nc4ccc(C(=O)O)cc4n2C[C@@H]2CCO2)C3)nc1 [Compound I-136]
114%	5.56 nM		Cc1csc(COc2cc3c(cc2C(F)(F)F)CCN(Cc2nc4ccc(C(=O)O)cc4n2C[C@@H]2CCO2)C3)n1 [Compound I-137]
94.3%	68.8 nM		Cc1nc(COc2cc3c(cc2C(F)(F)F)CCN(Cc2nc4ccc(C(=O)O)cc4n2C[C@@H]2CCO2)C3)cs1 [Compound I-138]
117%	1.23 nM		COc1cc(Cl)ccc1COc1cc2c(cc1C(F)(F)F)CCN(Cc1nc3ccc(C(=O)O)cc3n1C[C@@H]1CCO1)C2 [Compound I-139]
96%	18 nM		Cc1cc(Cl)ccc1COc1cc2c(cc1C(F)(F)F)CCN(Cc1nc3ccc(C(=O)O)cc3n1C[C@@H]1CCO1)C2 [Compound I-140]
101%	25.3 nM		O=C(O)c1ccc2nc(CN3CCc4cc(C(F)(F)F)c(OCc5ccc(OC(F)F)c(F)c5)cc4C3)n(C[C@@H]3CCO3)c2c1 [Compound I-143]
102%	40.3 nM		O=C(O)c1cc(C(F)F)c2nc(CN3CCc4cc(C(F)(F)F)c(OCc5ccc(Cl)cc5F)cc4C3)n(C[C@@H]3CCO3)c2c1 [Compound I-146]

Emax [1]	EC50 (hGLP-1R/CHO-K1 cells)	Emax(%) (hGLP-1R/CHO-K1 cells, cAMP, 100% = human GLP-1 (7-36) at 2 nM, 0% = DMSO only)	SMILES
88%	99.3 nM		Cc1cn(C)nc1COc1cc2c(cc1C(F)(F)F)CCN(Cc1nc3ccc(C(=O)O)cc3n1C[C@@H]1CCO1)C2 [Compound I-147]
95%	32.5 nM		CCn1ccc(COc2cc3c(cc2C(F)(F)F)CCN(Cc2nc4ccc(C(=O)O)cc4n2C[C@@H]2CCO2)C3)n1 [Compound I-148]
93.7%	101 nM		CC(C)n1ccc(COc2cc3c(cc2C(F)(F)F)CCN(Cc2nc4ccc(C(=O)O)cc4n2C[C@@H]2CCO2)C3)n1 [Compound I-149]
92%	18.3 nM		O=C(O)c1ccc2nc(CN3CCc4cc(C(F)(F)F)c(OCc5ccn(C(F)F)n5)cc4C3)n(C[C@@H]3CCO3)c2c1 [Compound I-150]
93.7%	124 nM		O=C(O)c1ccc2nc(CN3CCc4cc(C(F)(F)F)c(OCc5ccn(CC(F)(F)F)n5)cc4C3)n(C[C@@H]3CCO3)c2c1 [Compound I-151]
111%	5.88 nM		O=C(O)c1ccc2nc(CN3CCc4cc(C(F)(F)F)c(OCc5ccccc5OC(F)F)cc4C3)n(C[C@@H]3CCO3)c2c1 [Compound I-152]
104%	5.34 nM		COc1cc(F)c(COc2cc3c(cc2C(F)(F)F)CCN(Cc2nc4ccc(C(=O)O)cc4n2C[C@@H]2CCO2)C3)c(F)c1 [Compound I-153]
97.7%	38.4 nM		O=C(O)c1ccc2nc(CN3CCc4cc(C(F)(F)F)c(OCc5ccccc5F)cc4C3)n(C[C@@H]3CCO3)c2c1 [Compound I-154]
93.7%	25.9 nM		O=C(O)c1ccc2nc(CN3CCc4cc(C(F)(F)F)c(OCc5c(F)cccc5F)cc4C3)n(C[C@@H]3CCO3)c2c1 [Compound I-155]
89%	36.8 nM		O=C(O)c1ccc2nc(CN3CCc4cc(C(F)(F)F)c(OCc5ccccc5)cc4C3)n(C[C@@H]3CCO3)c2c1 [Compound I-156]
109%	4.29 nM		N#Cc1cc(Cl)ccc1COc1cc2c(cc1C(F)(F)F)CCN(Cc1nc3ccc(C(=O)O)cc3n1C[C@@H]1CCO1)C2 [Compound I-157]
94%	16.3 nM		O=C(O)c1ccc2nc(CN3CCc4cc(C(F)(F)F)c(OCc5c(F)cccc5Cl)cc4C3)n(C[C@@H]3CCO3)c2c1 [Compound I-158]
92.3%	13.3 nM		Cc1cc(F)cc(C)c1COc1cc2c(cc1C(F)(F)F)CCN(Cc1nc3ccc(C(=O)O)cc3n1C[C@@H]1CCO1)C2 [Compound I-159]
110%	1.28 nM		C[C@H]1c2cc(OCc3ccc(Cl)cc3)c(C(F)(F)F)cc2CCN1Cc1nc2ccc(C(=O)O)cc2n1C[C@@H]1CCO1 [Compound I-161]
106%	1.37 nM		Cc1ccc(COc2cc3c(cc2C(F)(F)F)CCN(Cc2nc4ccc(C(=O)O)cc4n2C[C@@H]2CCO2)[C@H]3C)cc1 [Compound I-162]
131%	10.6 nM		C[C@H]1c2cc(OCc3ccc(C4CC4)cc3)c(C(F)(F)F)cc2CCN1Cc1nc2ccc(C(=O)O)cc2n1C[C@@H]1CCO1 [Compound I-163]
104%	0.302 nM		COc1cc(Cl)ccc1COc1cc2c(cc1C(F)(F)F)CCN(Cc1nc3ccc(C(=O)O)cc3n1C[C@@H]1CCO1)[C@H]2C [Compound I-164]
103%	2.74 nM		C[C@H]1c2cc(OCc3ccccc3Cl)c(C(F)(F)F)cc2CCN1Cc1nc2ccc(C(=O)O)cc2n1C[C@@H]1CCO1 [Compound I-165]
111%	1.23 nM		C[C@H]1c2cc(OCc3ccc(F)cc3F)c(C(F)(F)F)cc2CCN1Cc1nc2ccc(C(=O)O)cc2n1C[C@@H]1CCO1 [Compound I-166]
